{"source": "paper PMC11858597", "about": "“Synthesis, Anticancer Screening, and In Silico Evaluations of Thieno[2,3-c]pyridine Derivatives as Hsp90 Inhibitors” (Pharmaceuticals, 2025)", "key": {"HSC3 cells [1]": {"system": "HSC3 cells", "experiment": "Apoptosis evaluation by Annexin V/PI staining, HSC3", "assay_type": "cell-based", "settings": "HSC3, IC50 concentration, 72 h", "experimental": "(§1) To further examine the processes responsible for reduced cell viability, apoptosis was evaluated by Annexin V/Propidium Iodide (PI) double staining, as outlined in the experimental section by considering the best active compound 6i. […] Annexin V/PI staining detects very little increase in Annexin-positive cells; 6i-treated cells were stained with Annexin V and PI for fluorescence-activated cell sorting (FACS) analysis. The results establish that 6i may promote cell death by processes distinct from apoptosis, deserving further investigation into alternative pathways, such as autophagy or ferroptosis.\n(§2) Floating dead cells and the attached cells were collected, washed with PBS, and resuspended in 100 μL of Annexin V solution for 30 min according to the manufacturer’s instruction (Annexin V-FITC Kit, Miltenyi Biotec, Gaithersburg, MD, USA, Catalog Number 130-092-052). After Annexin V staining, cells were stained shortly with PI to exclude the dead cells. The quantitative analysis for apoptosis was performed by FACS Accuri C6 Plus (BD BIOSCIENCES, Franklin Lakes, NJ, USA) flow cytometer. About 10,000 events were analyzed using the FlowJo software (version 10)."}, "HSC3": {"system": "HSC3", "experiment": "MTT assay, HSC3 head and neck cancer cells", "assay_type": "cell-based", "source_text": "(§3) An MTT assay was used to evaluate the final compounds’ anticancer activity against MCF7 and T47D (breast cancer cells), HSC3 (head and neck cancer cells), and RKO (colorectal cancer cells) cell lines, using cisplatin as a reference standard. Table 1 presents the percentage growth inhibition of all compounds against the various cancer cell lines.\n(§4) The cancer cell lines MCF7 and T47D (breast cancer cells), HSC3 (head and neck cancer cells), and RKO (colorectal cancer cells) were kindly provided by Prof. Stephan Feller, Institute of Molecular Medicine, Martin Luther University, Halle, Germany. The human fibroblast (PDL) cell line was obtained as a kind gift from Prof. Khaled Al-Qaoud (Yarmouk University, Irbid, Jordan). All cell lines were cultured in Dulbecco’s Modified Eagle’s Medium (DMEM) supplemented with 10% fetal bovine serum, 100 µg/mL streptomycin, 100 U/mL penicillin, and 1% non-essential amino acid at 37 °C with 5% CO2 in a humidified CO2 incubator. The cell cultures were grown to confluence, and the medium was changed two times weekly.\n(§5) The MTT (3-[4,5-dimethylthiazol-2-yl]-2,5-diphenyl tetrazolium bromide) assay was used to investigate cell viability and to calculate the half-maximal inhibitory concentration (IC50) values of the compounds 6(a–k) including standard reference cisplatin. Furthermore, […] stock solutions of the compounds were prepared in DMSO where all compounds were completely soluble. Cells were seeded in 96-well tissue culture plates at a density of 6,000 cells/well for MCF7, T47D, and PDL cells and at a density of 4000 cells/well for RKO and HSC3 cells. After 24 h of seeding, investigated cells were treated with three concentrations (1, 10, and 100 µm) of the compounds for 72 h. At the end of the treatment time, the supernatant medium was aspirated, and 50 µL of fresh DMEM containing MTT (0.5 mg/mL) was added to each well. Cells were then incubated at 37 °C for 2–4 h. After that, the medium was completely removed, and 50 µL of DMSO was added to each well to dissolve the precipitated formazan crystals formed by viable cells. Cell viability, represented by the absorbance of the formazan solution, was measured at 570 nm using the Synergy HTX Multimode Reader (BioTek, Vermont, USA), and cell viability was determined as described in the literature. For each concentration, the relative cell viability was calculated as follows: relative cell viability = (mean treatment absorbance/mean control absorbance) × 100%. Assays were performed in triplicate on three independent experiments. […] IC50 values were then calculated using the four-parameter logistic function in the SigmaPlot software (version 12.5) and presented as the mean ± SD from three independent experiments."}, "T47D": {"system": "T47D", "experiment": "MTT assay, T47D breast cancer cells", "assay_type": "cell-based", "settings": "Homo sapiens, 72 h", "source_text": "as §3, §4, §5"}, "MCF7": {"system": "MCF7", "experiment": "MTT assay, MCF7 breast cancer cells", "assay_type": "cell-based", "source_text": "as §3, §4, §5"}, "PDL": {"system": "PDL", "experiment": "MTT assay, normal fibroblast cell line (PDL)", "assay_type": "cell-based, human", "settings": "72 h", "source_text": "To understand the selectivity of compounds, a normal fibroblast cell line (human periodontal ligament-PDL) is also included in this IC50 determination.\nas §4, §5"}, "HSC3 cells [2]": {"system": "HSC3 cells", "experiment": "Cell cycle analysis (PI staining), HSC3", "assay_type": "cell-based", "settings": "HSC3, IC50 concentration, 72 h", "experimental": "(§6) In a subsequent set of experiments, we aimed to evaluate the effect of compound 6i on the cell cycle. Treatment with 6i led to a significant accumulation of HSC3 and RKO cells in the G2 phase (HSC3: control, 34.6% ± 3.2% vs. 6i, 46.4% ± 3.6%; RKO: control, 34.5% ± 2.9% vs. 6i, 64.2% ± 3.5%).\n(§7) The supernatant with the floating dead cells and the attached cells from each well were collected and fixed in cold ethanol at −20 °C for 30 min [69]. Cells were stained with a Propidium iodide (PI) working solution (1 µg/mL PI and 10 µg/mL RNase A in PBS) for 30 min at 37 °C in the dark and then washed with PBS. Cell fluorescence was measured using the FACS Accuri C6 Plus (BD BIOSCIENCES, Franklin Lakes, NJ, USA) flow cytometer. Histograms of cell counts versus […] fluorescence were generated, and the distribution of cells throughout several cell cycle stages was assessed based on the mean fluorescence intensity values. About 10,000 events were examined utilizing FlowJo software (version 10)."}, "RKO cells [3]": {"system": "RKO cells", "experiment": "Cell cycle analysis (PI staining), RKO", "assay_type": "cell-based", "settings": "IC50 concentration, 72 h", "experimental": "as §6, §7"}, "RKO": {"system": "RKO", "experiment": "MTT assay, RKO colorectal cancer cells", "assay_type": "cell-based", "settings": "Homo sapiens, 72 h", "source_text": "as §3, §4, §5"}, "RKO cells [4]": {"system": "RKO cells", "experiment": "Apoptosis evaluation by Annexin V/PI staining, RKO", "assay_type": "cell-based", "settings": "IC50 concentration, 72 h", "experimental": "as §1, §2"}, "Hsp90": {"system": "Hsp90", "parameters": "method as in PMID 20371713", "settings": "against breast cancer; read-out: Hsp90 inhibition IC50; cited from earlier work"}, "[5]": {"settings": "1 µM, read-out: % cell growth inhibition"}, "[6]": {"settings": "10 µM, read-out: % cell growth inhibition"}, "[7]": {"settings": "100 µM, read-out: % cell growth inhibition"}}}
{"smiles": "CCOC(=O)c1c(NC(=O)CN2CCSCC2)sc2c1CCN(C(=O)OCC)C2", "note": "[6i, Diethyl 2-(2-thiomorpholinoacetamido)-4,7-dihydrothieno[2,3-c]pyridine-3,6(5H)-dicarboxylate]", "values": [{"measurement": "proportion of apoptotic cells with positive Annexin V staining", "setting": "HSC3 cells [1]", "value": "significantly lower"}, {"measurement": "% cell growth inhibition", "setting": "HSC3; HSC3, 100 µM, 72 h, 100 µM", "value": 94.04, "unit": "%"}, {"measurement": "inhibition at 1 µM", "setting": "HSC3; Homo sapiens, HSC-3, 72 h, HSC3, 1 µM, 72 h, read-out: % cell growth inhibition", "value": 14.8, "unit": "%"}, {"measurement": "inhibition at 10 µM", "setting": "HSC3; Homo sapiens, HSC-3, 72 h, HSC3, 10 µM, 72 h, read-out: % cell growth inhibition", "value": 62.3, "unit": "%"}, {"measurement": "inhibition at 100 µM", "setting": "HSC3; Homo sapiens, HSC-3, 72 h, HSC3, 100 µM, 72 h, read-out: % cell growth inhibition", "value": 94, "unit": "%"}, {"measurement": "IC50", "setting": "HSC3; Homo sapiens, HSC-3, HSC3, 72 h", "value": "10.8 ± 3.9", "unit": "µM"}, {"measurement": "inhibition at 1 µM", "setting": "T47D; [5]", "value": 1.9, "unit": "%"}, {"measurement": "inhibition at 10 µM", "setting": "T47D; [6]", "value": 35.3, "unit": "%"}, {"measurement": "inhibition at 100 µM", "setting": "T47D; [7]", "value": 83.9, "unit": "%"}, {"measurement": "IC50", "setting": "T47D", "value": "11.7 ± 1.1", "unit": "µM"}, {"measurement": "IC50", "setting": "MCF7; Homo sapiens, MCF7, 72 h", "value": "16.4 ± 0.2", "unit": "µM"}, {"measurement": "inhibition at 1 µM", "setting": "MCF7; Homo sapiens, MCF7, 1 µM, 72 h, read-out: % cell growth inhibition", "value": 1.53, "unit": "%"}, {"measurement": "inhibition at 10 µM", "setting": "MCF7; Homo sapiens, MCF7, 10 µM, 72 h, read-out: % cell growth inhibition", "value": 39.1, "unit": "%"}, {"measurement": "inhibition at 100 µM", "setting": "MCF7; Homo sapiens, MCF7, 100 µM, 72 h, read-out: % cell growth inhibition", "value": 95.3, "unit": "%"}, {"measurement": "% cell growth inhibition", "setting": "MCF7; MCF7, 1 µM, 72 h", "value": "weak inhibition"}, {"measurement": "IC50", "setting": "PDL; Homo sapiens, Fibroblast, PDL normal fibroblasts", "value": "> 100", "unit": "µM"}, {"measurement": "toxicity to normal fibroblast cell lines, PDL", "setting": "PDL; PDL", "value": "no toxicity"}, {"measurement": "proportion of cells in the G1 and S phases", "setting": "HSC3 cells [2]; vs control", "value": "markedly reduced"}, {"measurement": "cells in the G2 phase", "setting": "HSC3 cells [2]; control 34.6% ± 3.2%", "value": "46.4% ± 3.6%"}, {"measurement": "cells in the G2 phase", "setting": "RKO cells [3]; control 34.5% ± 2.9%", "value": "64.2% ± 3.5%"}, {"measurement": "proportion of cells in the G1 and S phases", "setting": "RKO cells [3]; vs control", "value": "markedly reduced"}, {"measurement": "inhibition at 1 µM", "setting": "RKO; [5]", "value": 5.17, "unit": "%"}, {"measurement": "inhibition at 10 µM", "setting": "RKO; [6]", "value": 55.4, "unit": "%"}, {"measurement": "inhibition at 100 µM", "setting": "RKO; [7]", "value": 92.5, "unit": "%"}, {"measurement": "IC50", "setting": "RKO", "value": "12.4 ± 1.9", "unit": "µM"}, {"measurement": "proportion of apoptotic cells with positive Annexin V staining", "setting": "RKO cells [4]", "value": "significantly lower"}]}
{"smiles": "CCNC(=O)c1cc2c(-c3cc(OCCN4CCCC4)c(Cl)cc3Cl)nc(N)nc2s1", "note": "[NVP-BEP800]", "values": [{"measurement": "IC50", "setting": "Hsp90", "value": 0.058, "unit": "µM"}]}
